Experimental data from patent publication US11325884B2, “Ketone inhibitors of lysine gingipain” (CORTEXYME, INC., priority 2016, dated 2022).
Where “and” joins values, the source holds several entries; their conditions need not be identical. Identical values can stand only once. Like-named read-outs stand apart in the source and are kept apart here.

Columns and labels:
lysine gingipain (Kgp) = lysine gingipain (Kgp) (Porphyromonas gingivalis (strain ATCC 33277 / DSM 20709 / CIP 103683 / JCM 12257 / NCTC 11834 / 2561), UniProt B2RLK2); assay: Inhibition of lysine gingipain, fluorogenic assay (Z-His-Glu-Lys-MCA); format: biochemical; conditions: for selectivity for Kgp over endogenous cathepsins: as compared to reference compound 73
Procedure: The specific assay conditions were as follows. Buffer: pH=7.5, 100 mM Tris-HCl, 75 mM NaCl, 2.5 mM CaCl2, 10 mM cysteine, 1% DMSO after all additions. Protein: 0.1 nM Kgp, isolated from culture of Porphyromonas gingivalis, as described by Pike et al. (J. Biol. Chem. 1994, 269(1), 406), and Potempa and Nguyen (Current Protocols in Protein Science. 2007, 21.20.1-21.20.27). Fluorogenic substrate: 10 μM Z-His-Glu-Lys-MCA. Time=90 minutes. Temperature=37° C.
Further assays to measure the inhibitory activity of compounds of the present invention against Kgp and cathepsins B, H, K, L, and S were conducted as described in Example 66. The capacities of the compounds to inhibit the activity of cathepsins F, V, and Z were also measured.

Kgp = Kgp (Porphyromonas gingivalis (Bacteroides gingivalis), UniProt Q51817); assay: Activity probe labeling of Kgp in P. gingivalis-infected Jurkat cells; format: cell-based
From the text: The identity of this labeled protein in P. gingivalis-infected cells was confirmed to be Kgp by Western blot.

[1] = Oral pharmacokinetics in CD-1 mice; format: in vivo; conditions: male CD-1 mice, p.o. 10 mg/kg; for oral availability / plasma concentrations: as compared to reference compound 73
[2] = Table 3, read-out: IC50 (nM) Kgp
[3] = Table 4, read-out: IC50 (nM) Kgp
[4] = Table 5, probe compounds, read-out: Kgp IC50

Structure (SMILES)	IC50 (lysine gingipain (Kgp); [3]) [nM]	also measured
NCCCC[C@H](NC(=O)C1CCCC1)C(=O)COc1c(F)c(F)cc(F)c1F (stereo in doubt) [Compound 73, N-[7-amino-2-oxo-1-(2,3,5,6-tetrafluorophenoxy)heptan-3-yl]cyclopentanecarboxamide, reference compound]	< 0.05	Kgp IC50 values (in words) (lysine gingipain (Kgp)): sub-nanomolar; IC50 (lysine gingipain (Kgp); [2]): ≤ 0.05 nM; IC50 (lysine gingipain (Kgp); [4]): < 0.05 nM
NCCCC[C@H](NC(=O)C1CCCC1)C(=O)COc1c(F)cccc1F [Compound 2, (S)—N-(7-amino-1-(2,6-difluorophenoxy)-2-oxoheptan-3-yl)cyclopentanecarboxamide]		selectivity for Kgp over endogenous cathepsins (lysine gingipain (Kgp)): increased selectivity
NCCCCC(NC(=O)C1CCCC1)C(=O)COc1c(F)cccc1F (stereo not drawn) [Compound 2a]	< 0.05	IC50 (lysine gingipain (Kgp); [2]): ≤ 0.05 nM and 0.11 nM
NCCCCC(NC(=O)C1CCCC1)C(=O)COc1ccccc1F (stereo not drawn) [Compound 3a]		IC50 (lysine gingipain (Kgp); [2]): 0.64 nM
NCCCCC(NC(=O)C1CCCC1)C(=O)COc1cc(F)cc(F)c1F (stereo not drawn) [Compound 4a]		IC50 (lysine gingipain (Kgp); [2]): 0.07 nM
NCCCCC(NC(=O)C1CCCC1)C(=O)COc1cccc(F)c1F (stereo not drawn) [Compound 5a]		IC50 (lysine gingipain (Kgp); [2]): 0.15 nM
NCCCCC(NC(=O)C1CCCC1)C(=O)COc1cc(F)ccc1F (stereo not drawn) [Compound 6a]		IC50 (lysine gingipain (Kgp); [2]): 0.19 nM
NCCCC[C@H](NC(=O)C1CCCC1)C(=O)COc1cccc(F)c1 [Compound 7, (S)—N-(7-amino-1-(3-fluorophenoxy)-2-oxoheptan-3-yl)cyclopentanecarboxamide]		selectivity for Kgp over endogenous cathepsins (lysine gingipain (Kgp)): increased selectivity
NCCCCC(NC(=O)C1CCCC1)C(=O)COc1cccc(F)c1 (stereo not drawn) [Compound 7a]	1.3	IC50 (lysine gingipain (Kgp); [2]): 1.3 nM
NCCCCC(NC(=O)C1CCCC1)C(=O)COc1cc(F)cc(F)c1 (stereo not drawn) [Compound 8a]		IC50 (lysine gingipain (Kgp); [2]): 0.34 nM
[N-]=[N+]=Nc1cccc(C(=O)NC(CCCCN)C(=O)COc2c(F)cccc2F)c1 (stereo not drawn) [Compound 12a]		IC50 (lysine gingipain (Kgp); [2]): 0.08 nM
CC1=CC(C)=[N+]2C1=Cc1ccc(CCC(=O)NCc3cn(-c4cccc(C(=O)NC(CCCCN)C(=O)COc5c(F)cccc5F)c4)nn3)n1[B-]2(F)F (stereo not drawn) [Compound 15a]		binding to purified Kgp and to Kgp in infected cells (Kgp; FIG. 6A): irreversibly binds
CSCC(=O)C(CCCCN)NC(=O)C1CCCC1 (stereo not drawn) [Compound 16a]		IC50 (lysine gingipain (Kgp); [2]): > 100 nM
NCCCCC(NC(=O)C1CCCC1)C(=O)COCC(F)(F)F (stereo not drawn) [Compound 17a]		IC50 (lysine gingipain (Kgp); [2]): > 100 nM
NCCCC[C@H](NC(=O)C1CCCC1)C(=O)COC(C(F)(F)F)C(F)(F)F [Compound 18, (S)—N-(7-amino-1-((1,1,1,3,3,3-hexafluoropropan-2-yl)oxy)-2-oxoheptan-3-yl)cyclopentanecarboxamide]		selectivity for Kgp over endogenous cathepsins (lysine gingipain (Kgp)): far more selective
NCCCCC(NC(=O)C1CCCC1)C(=O)COC(C(F)(F)F)C(F)(F)F (stereo not drawn) [Compound 18a]	0.5	IC50 (lysine gingipain (Kgp); [2]): 0.5 nM
CN(C)CC(=O)C(CCCCN)NC(=O)C1CCCC1 (stereo not drawn) [Compound 19a]		IC50 (lysine gingipain (Kgp); [2]): > 100 nM
CS(=O)(=O)CC(=O)C(CCCCN)NC(=O)C1CCCC1 (stereo not drawn) [Compound 20a]		IC50 (lysine gingipain (Kgp); [2]): > 100 nM
NCCCCC(NC(=O)c1cccc(F)c1)C(=O)COc1c(F)cccc1F (stereo not drawn) [Compound 26a]	0.09	
NCCCCC(NC(=O)c1cccc(OCCF)c1)C(=O)COc1c(F)cccc1F (stereo not drawn) [Compound 27a]	0.27	

Structure (SMILES)	IC50 (lysine gingipain (Kgp); [3]) [nM]	also measured
NCCCCC(NC(=O)c1cccc(F)n1)C(=O)COc1c(F)cccc1F (stereo not drawn) [Compound 28a]	0.34	
NCCCCC(NC(=O)c1ccc(F)nc1)C(=O)COc1c(F)cccc1F (stereo not drawn) [Compound 29a]	0.31	
NCCCCC(NC(=O)c1cccc(OCCCF)c1)C(=O)COc1c(F)cccc1F (stereo not drawn) [Compound 30a]	0.21	
NCCCCC(NC(=O)c1ccnc(F)c1)C(=O)COc1c(F)cccc1F (stereo not drawn) [Compound 31a]	0.15	
NCCCCC(NC(=O)c1cccnc1F)C(=O)COc1c(F)cccc1F (stereo not drawn) [Compound 32a]	0.08	
[N-]=[N+]=Nc1cccc(C(=O)NC(CCCCN)C(=O)COc2c(F)cccc2F)c1 (stereo not drawn) [Compound 33a]	0.08	
NCCCCC(NC(=O)c1cccnc1Br)C(=O)COc1c(F)cccc1F (stereo not drawn) [Compound 34a]	0.13	
NCCCCC(NC(=O)c1ccc(F)cc1)C(=O)COc1c(F)cccc1F (stereo not drawn) [Compound 35a]	0.1	
NCCCCC(NC(=O)c1ccccc1)C(=O)C(F)F (stereo not drawn) [Compound 37a]	> 100	
NCCCCC(NC(=O)C1CCCC1)C(=O)Cn1cnccc1=O (stereo not drawn) [Compound 39a]	> 100	
NCCCCC(NC(=O)C1CCCC1)C(=O)Cn1ccc(=O)nc1 (stereo not drawn) [Compound 40a]	30.3	
NCCCCC(NC(=O)C1CCCC1)C(=O)Cn1cncc(F)c1=O (stereo not drawn) [Compound 41a]	> 100	
NCCCCC(NC(=O)c1cccnc1)C(=O)COc1c(F)ccc(F)c1F (stereo not drawn) [Compound 42a]	0.06	
NCCCCC(NC(=O)c1cccnc1)C(=O)COc1c(F)cccc1F (stereo not drawn) [Compound 43a]	0.09	
CN(C)c1ccc(/N=N/c2ccc(C(=O)NCc3cc(F)c(OCC(=O)C(CCCCN)NC(=O)c4cccc(N=[N+]=[N-])c4)c(F)c3)cc2)cc1 (stereo not drawn) [Compound 44a]	3.04	IC50 (lysine gingipain (Kgp); [4]): 3 nM
COC(C)(C)C(=O)N[C@@H](CCCCN)C(=O)COc1c(F)ccc(F)c1F [Compound 47, (S)—N-(7-amino-2-oxo-1-(2,3,6-trifluorophenoxy)heptan-3-yl)-2-methoxy-2-methylpropanamide]		selectivity for Kgp over endogenous cathepsins (lysine gingipain (Kgp)): far more selective; concentrations in the brain and cerebrospinal fluid (CSF) [1]: increased; oral availability [1]: improved; plasma concentrations [1]: increased
COC(C)(C)C(=O)NC(CCCCN)C(=O)COc1c(F)ccc(F)c1F (stereo not drawn) [Compound 47a]	0.06	
COC(C)(C)C(=O)N[C@@H](CCCCN)C(=O)COc1c(F)cccc1F [Compound 48, (S)—N-(7-amino-1-(2,6-difluorophenoxy)-2-oxoheptan-3-yl)-2-methoxy-2-methylpropanamide]		oral availability [1]: improved; plasma concentrations [1]: increased
COC(C)(C)C(=O)NC(CCCCN)C(=O)COc1c(F)cccc1F (stereo not drawn) [Compound 48a]	0.07	
NCCCC[C@H](NC(=O)C1CCCC1)C(=O)COc1ccon1 [Compound 49, (S)—N-(7-amino-1-(isoxazol-3-yloxy)-2-oxoheptan-3-yl)cyclopentanecarboxamide]		concentrations in the brain and cerebrospinal fluid (CSF) [1]: reduced

Structure (SMILES)	IC50 (lysine gingipain (Kgp); [3]) [nM]	also measured
NCCCCC(NC(=O)C1CCCC1)C(=O)COc1ccon1 (stereo not drawn) [Compound 49a]	0.23	
NCCCC[C@H](NC(=O)c1ccccn1)C(=O)COc1c(F)ccc(F)c1F [Compound 50, (S)—N-(7-amino-2-oxo-1-(2,3,6-trifluorophenoxy)heptan-3-yl)picolinamide]		selectivity for Kgp over endogenous cathepsins (lysine gingipain (Kgp)): increased selectivity
NCCCCC(NC(=O)c1ccccn1)C(=O)COc1c(F)ccc(F)c1F (stereo not drawn) [Compound 50a]	0.09	
NCCCCC(NC(=O)c1ccncc1)C(=O)COc1c(F)ccc(F)c1F (stereo not drawn) [Compound 52a]	0.06	
NCCCC[C@H](NC(=O)c1ccc(F)nc1)C(=O)COc1ccon1 [Compound 55, (S)—N-(7-amino-1-(isoxazol-3-yloxy)-2-oxoheptan-3-yl)-6-fluoronicotinamide]		selectivity for Kgp over endogenous cathepsins (lysine gingipain (Kgp)): far more selective
NCCCCC(NC(=O)c1ccc(F)nc1)C(=O)COc1ccon1 (stereo not drawn) [Compound 55a]	0.12	
NCCCCC(NC(=O)c1cccnc1F)C(=O)COc1ccon1 (stereo not drawn) [Compound 56a]	0.1	
COC(C)(C)C(=O)NC(CCCCN)C(=O)COc1ccon1 (stereo not drawn) [Compound 57a]	0.09	
CS(C)(=O)=CC(=O)C(CCCCN)NC(=O)C1CCCC1 (stereo not drawn) [Compound 58a]	4.66	
C[N+](C)(C)c1ccc(C(=O)NC(CCCCN)C(=O)COc2ccon2)cn1 (stereo not drawn) [Compound 61a]	0.43	
CN(C)c1ccc(C(=O)NC(CCCCN)C(=O)COc2ccon2)cn1 (stereo not drawn) [Compound 62a]	0.14	
COC(C)(C)C(=O)NC(CCCCN)C(=O)COc1cc(C)nc(C)c1 (stereo not drawn) [Compound 63a]	0.09	
COC(C)(C)C(=O)NC(CCCCN)C(=O)COc1cccnc1 (stereo not drawn) [Compound 64a]	0.4	
COC(C)(C)C(=O)NC(CCCCN)C(=O)COc1cnc(C)nc1 (stereo not drawn) [Compound 65a]	0.16	
COC(C)(C)C(=O)N[C@@H](CCCCN)C(=O)COC(C(F)(F)F)C(F)(F)F [Compound 69, (S)—N-(7-amino-1-((1,1,1,3,3,3-hexafluoropropan-2-yl)oxy)-2-oxoheptan-3-yl)-2-methoxy-2-methylpropanamide]		selectivity for Kgp over endogenous cathepsins (lysine gingipain (Kgp)): far more selective; concentrations in the brain and cerebrospinal fluid (CSF) [1]: increased; oral availability [1]: improved; plasma concentrations [1]: increased
COC(C)(C)C(=O)NC(CCCCN)C(=O)COC(C(F)(F)F)C(F)(F)F (stereo not drawn) [Compound 69a]	0.21	
C[N+]1=C(/C=C/C=C/C=C2\N(CCCCCC(=O)NCc3cn(-c4cccc(C(=O)N[C@@H](CCCCN)C(=O)COc5c(F)cccc5F)c4)nn3)c3ccc(S(=O)(=O)O)cc3C2(C)C)C(C)(C)c2cc(S(=O)(=O)O)ccc21 [Compound 70]		effect of preincubation on binding of probe 15a to Kgp (Kgp; infected Jurkat cells, preincubation 1 hour): blocked the binding
NCCCC[C@@H](NC(=O)C1CCCC1)C(=O)COc1c(F)c(F)cc(F)c1F [Compound 74, reference compound]		IC50 (lysine gingipain (Kgp); [2]): ≤ 0.05 nM
